Reference: patent US20090018111A1, “Novel Antimicrobial Medicament” (priority 2004, published 2009)

Legend:
S. aureus 209P = test: Sensitivity test (agar dilution); assay type: cell-based, Staphylococcus aureus
Method: (§1) The antibacterial activities were tested against various 18 bacteria (27 standard strains) which are representative bacteria caused clinically infectious disease (Staphylococcus aureus 3 strains, Staphylococcus epidermidis 1 strain, Micrococcus luteus 1 strain, Streptococcus pyogenes 1 strain, Enterococcus faecalis 1 strain, Enterococcus faecium 1 strain, Bacillus subtilis 1 strain, Escherichia coli 3 strains, Klebsiella pneumoniae 1 strain, Proteus mirabilis 1 strain, Proteus vulgaris 2 strains, Pseudomonas aeruginosa 3 strains, Serratia marcescens 2 strains, Enterobacter aerogenes 1 strain, Stenotrophomonas maltophilia 1 strain, Enterobacter cloacae 1 strain, Citrobacter freundii 1 strain, Moraxella catarrhalis 2 strains).
(§2) According to the standard method of Japan Chemotherapeutic Society (Chemotherapy, vol. […], p 76-79 (1981)) the test was carried out using the agar dilution method. After dissolving test samples in distilled water, agar medium containing the test samples was prepared in such a manner that the final concentration became twice serial dilution by pouring serially diluted combination drug solution or a single drug solution into agar medium. As agar medium was used Mueller Hinton Agar medium (MHA). Then, each strain was cultivated over night at 37° C. in an incubator and suspended in buffered saline solution with gelatin (BSG) in the concentration of about 10^6 CFU/ml. The suspension (about 5 μl) containing test strains was inoculated to the medium containing the test samples by Micro Planter.
(§3) When the sample is subjected to sensitivity test, this mixed solution was diluted by twice serial dilution method.
(§4) Furthermore, when the drug is solely used, each test sample was used as it is, and diluted by twice serial dilution method from the maximum concentration to the minimum concentration.
(§5) FIC index based on MIC value was calculated. […] Namely, when FIC index calculated by the following formula is equal or less than 1, the enhanced effect of the combination drug in said ratio is considered as positive. When FIC index is over 1, the enhanced effect of the combination drug in said ratio is considered as negative.
(§6) Formula of FIC index: FIC index=(MIC of Drug A in combination/MIC of Drug A alone)+(MIC of Drug B in combination/MIC of Drug B alone) N.C. in tables means being not calculated.

[1] = tested on: S. aureus MS94088 (hetero-MRSA); test: Sensitivity test (agar dilution); assay type: cell-based, Staphylococcus aureus
Method: as §1, §2, §3, §4, §5, §6

[2] = tested on: S. aureus SP-7928 (homo-MRSA); test: Sensitivity test (agar dilution); assay type: cell-based, Staphylococcus aureus
Method: as §1, §2, §3, §4, §5, §6

S. epidermidis IAM1296 = test: Sensitivity test (agar dilution); assay type: cell-based, Staphylococcus epidermidis
Method: as §1, §2, §3, §4, §5, §6

M. luteus ATCC9341 = test: Sensitivity test (agar dilution); assay type: cell-based, Micrococcus luteus
Method: as §1, §2, §3, §4, §5, §6

Str. pyogenes Cook = test: Sensitivity test (agar dilution); assay type: cell-based, Streptococcus pyogenes
Method: as §1, §2, §3, §4, §5, §6

E. faecalis ATCC19433 = test: Sensitivity test (agar dilution); assay type: cell-based, Enterococcus faecalis
Method: as §1, §2, §3, §4, §5, §6

E. faecium ATCC19434 = test: Sensitivity test (agar dilution); assay type: cell-based, Enterococcus faecium
Method: as §1, §2, §3, §4, §5, §6

B. subtilis ATCC6633 = test: Sensitivity test (agar dilution); assay type: cell-based, Bacillus subtilis
Method: as §1, §2, §3, §4, §5, §6

E. coli ML1410 = test: Sensitivity test (agar dilution); assay type: cell-based, Escherichia coli; details: alone
Method: as §1, §2, §3, §4, §5, §6

E. coli NIHJ JC-2 = test: Sensitivity test (agar dilution); assay type: cell-based, Escherichia coli
Method: as §1, §2, §3, §4, §5, §6

E. coli ML1410 RP4 = test: microbe, parasite or virus in culture; assay type: cell-based, Escherichia coli; details: alone
Method: as §1, §2, §3, §4, §5, §6

K. pneumoniae ATCC10031 = test: Sensitivity test (agar dilution); assay type: cell-based, Klebsiella pneumoniae
Method: as §1, §2, §3, §4, §5, §6

P. mirabiris GN2425 = test: Sensitivity test (agar dilution); assay type: cell-based, Proteus mirabilis
Method: as §1, §2, §3, §4, §5, §6

P. vulgaris GN7919 = test: Sensitivity test (agar dilution); assay type: cell-based, Proteus vulgaris
Method: as §1, §2, §3, §4, §5, §6

P. vurgalis OX-19 = test: Sensitivity test (agar dilution); assay type: cell-based, Proteus vulgaris
Method: as §1, §2, §3, §4, §5, §6

S. marcescens GN6473 = test: Sensitivity test (agar dilution); assay type: cell-based, Serratia marcescens
Method: as §1, §2, §3, §4, §5, §6

S. marcescens X 100 = test: Sensitivity test (agar dilution); assay type: cell-based, Serratia marcescens
Method: as §1, §2, §3, §4, §5, §6

E. aerogenes ATCC13048 = test: Sensitivity test (agar dilution); assay type: cell-based, Enterobacter aerogenes
Method: as §1, §2, §3, §4, §5, §6

E. cloacae GN7471 = test: Sensitivity test (agar dilution); assay type: cell-based, Enterobacter cloacae
Method: as §1, §2, §3, §4, §5, §6

C. freundii GN346 = test: Sensitivity test (agar dilution); assay type: cell-based, Citrobacter freundii
Method: as §1, §2, §3, §4, §5, §6

P. aeruginosa IFO3451 = test: Sensitivity test (agar dilution); assay type: cell-based, Pseudomonas aeruginosa
Method: as §1, §2, §3, §4, §5, §6

P. aeruginosa TL-2666 = test: Sensitivity test (agar dilution); assay type: cell-based, Pseudomonas aeruginosa
Method: as §1, §2, §3, §4, §5, §6

P. aeruginosa TL-2667 = test: Sensitivity test (agar dilution); assay type: cell-based, Pseudomonas aeruginosa
Method: as §1, §2, §3, §4, §5, §6

S. maltophilia IID1275 = test: Sensitivity test (agar dilution); assay type: cell-based, Stenotrophomonas maltophilia
Method: as §1, §2, §3, §4, §5, §6

M. catarrhalis ATCC25238 = test: Sensitivity test (agar dilution); assay type: cell-based, Moraxella catarrhalis
Method: as §1, §2, §3, §4, §5, §6

M. catarrhalis ATCC8176 = test: Sensitivity test (agar dilution); assay type: cell-based, Moraxella catarrhalis
Method: as §1, §2, §3, §4, §5, §6

[3] = tested on: 18 bacteria (27 standard strains); test: Sensitivity test, combination effect over the standard strains; assay type: cell-based; details: in combination with compound 1, standard strains
Method: as §1, §2, §3, §5, §6

C[C@@H](O)[C@H]1C(=O)N2C(C(=O)O)=C(SCCN=CN)C[C@H]12 [IPM, imipenem] gave an MIC (S. aureus 209P; Concomitant (IPM:SM = 1:1)) of 4 ng/mL, an MIC (S. aureus 209P; alone) of 8 ng/mL and an MIC ([1]; Concomitant (IPM:SM = 1:1)) of 0.25 µg/mL. For the same compound, the MIC ([1]; alone) was 0.125 µg/mL, the MIC ([2]; Concomitant (IPM:SM = 1:1)) was 2 µg/mL and the MIC ([2]; alone) was greater than 32 µg/mL. For the same compound, the MIC (S. epidermidis IAM1296; Concomitant (IPM:SM = 1:1)) was 0.016 µg/mL, the MIC (S. epidermidis IAM1296; alone) was 0.25 µg/mL and the MIC (M. luteus ATCC9341; Concomitant (IPM:SM = 1:1)) was 0.004 µg/mL. For the same compound, the MIC (M. luteus ATCC9341; alone) was 0.024 µg/mL, the MIC (Str. pyogenes Cook; Concomitant (IPM:SM = 1:1)) was “≦0.002 μg/ml” and the MIC (Str. pyogenes Cook; alone) was “≦0.002 μg/ml”. For the same compound, the MIC (E. faecalis ATCC19433; Concomitant (IPM:SM = 1:1)) was 0.5 µg/mL, the MIC (E. faecalis ATCC19433; alone) was 1 µg/mL and the MIC (E. faecium ATCC19434; Concomitant (IPM:SM = 1:1)) was 0.125 µg/mL. For the same compound, the MIC (E. faecium ATCC19434; alone) was 4 µg/mL, the MIC (B. subtilis ATCC6633; Concomitant (IPM:SM = 1:1)) was “≦0.002 μg/ml” and the MIC (B. subtilis ATCC6633; alone) was 0.016 µg/mL. The MIC (E. coli ML1410) was 0.25 µg/mL, the MIC (E. coli NIHJ JC-2; Concomitant (IPM:SM = 1:1)) was 0.063 µg/mL and the MIC (E. coli NIHJ JC-2; alone) was 0.125 µg/mL. The MIC (E. coli ML1410 RP4) was 0.5 µg/mL, the MIC (K. pneumoniae ATCC10031; Concomitant (IPM:SM = 1:1)) was 0.031 µg/mL and the MIC (K. pneumoniae ATCC10031; alone) was 0.125 µg/mL. The MIC (P. mirabiris GN2425; Concomitant (IPM:SM = 1:1)) was 0.25 µg/mL, the MIC (P. mirabiris GN2425; alone) was 1 µg/mL and the MIC (P. vulgaris GN7919; Concomitant (IPM:SM = 1:1)) was 0.5 µg/mL. For the same compound, the MIC (P. vulgaris GN7919; alone) was 1 µg/mL, the MIC (P. vurgalis OX-19; Concomitant (IPM:SM = 1:1)) was 0.063 µg/mL and the MIC (P. vurgalis OX-19; alone) was 1 µg/mL. For the same compound, the MIC (S. marcescens GN6473; Concomitant (IPM:SM = 1:1)) was 0.25 µg/mL, the MIC (S. marcescens GN6473; alone) was 0.25 µg/mL and the MIC (S. marcescens X 100; Concomitant (IPM:SM = 1:1)) was 0.125 µg/mL. For the same compound, the MIC (S. marcescens X 100; alone) was 0.25 µg/mL, the MIC (E. aerogenes ATCC13048; Concomitant (IPM:SM = 1:1)) was 0.125 µg/mL and the MIC (E. aerogenes ATCC13048; alone) was 0.25 µg/mL. The MIC (E. cloacae GN7471; Concomitant (IPM:SM = 1:1)) was 0.125 µg/mL, the MIC (E. cloacae GN7471; alone) was 0.125 µg/mL and the MIC (C. freundii GN346; Concomitant (IPM:SM = 1:1)) was 0.25 µg/mL. For the same compound, the MIC (C. freundii GN346; alone) was 0.5 µg/mL, the MIC (P. aeruginosa IFO3451; Concomitant (IPM:SM = 1:1)) was 0.5 µg/mL and the MIC (P. aeruginosa IFO3451; alone) was 1 µg/mL. It also gave an MIC (P. aeruginosa TL-2666; Concomitant (IPM:SM = 1:1)) of 1 µg/mL, an MIC (P. aeruginosa TL-2666; alone) of 2 µg/mL and an MIC (P. aeruginosa TL-2667; Concomitant (IPM:SM = 1:1)) of 8 µg/mL. The MIC (P. aeruginosa TL-2667; alone) was 8 µg/mL, the MIC (S. maltophilia IID1275; Concomitant (IPM:SM = 1:1)) was greater than 32 µg/mL and the MIC (S. maltophilia IID1275; alone) was greater than 32 µg/mL. For the same compound, the MIC (M. catarrhalis ATCC25238; Concomitant (IPM:SM = 1:1)) was “≦0.002 μg/ml”, the MIC (M. catarrhalis ATCC25238; alone) was 8 ng/mL and the MIC (M. catarrhalis ATCC8176; Concomitant (IPM:SM = 1:1)) was “≦0.002 μg/ml”. For the same compound, the MIC (M. catarrhalis ATCC8176; alone) was 8 ng/mL and the combination effect [3] was “the combination effect was recognized”.
